Laboratory results as given in patent US20250099455A1, “TREATMENT FOR CONGESTIVE HEART FAILURE” (FibroGen, Inc., priority 2022, published 2025).
Entries after “also recorded” stand apart in the source; their conditions may differ. Like-named read-outs stand apart in the source and are kept apart here.

What was measured:
[1] = tested on: congestive heart failure subsequent to myocardial infarction; assay: Rat CHF subsequent to myocardial infarction, daily dosing (Example 4); format: in vivo
Experimental: A similar experiment was carried out in which rats were dosed more frequently with a lower dose. Animals were dosed orally every day with vehicle, 2 mg/kg, 6 mg/kg or 20 mg/kg compound from day 2 to day 26 post MI. […] The effect of the compound of Formula I on cardiac function in congestive heart failure (CHF) was studied by inducing CHF subsequent to myocardial infarction (MI). Four groups of rats (n=12) were subjected to MI by 30 minute ligation of the left coronary artery followed by reperfusion. In a sham group, rats underwent a similar surgical procedure except that the left coronary artery was not occluded. Treatment with the compound of Formula I was initiated 2 days after reperfusion. In the MI groups, rats were dosed orally daily with vehicle, 2 mg/kg, 6 mg/kg or 20 mg/kg compound from day 2 to day 26 post MI. In the sham group, rats were dosed with vehicle on the same schedule. At 28 days post-MI, cardiac function, heart weight, and complete blood count (CBC) were measured. • Male Sprague Dawley rats • Ligation of left coronary artery for 30 minutes followed by reperfusion • Post-ligation recovery for 28 days • Cardiac function 28 days after ischemia-reperfusion using a Millar pressure-volume catheter inserted in the left ventricle via the carotid artery • Record pressure-volume loops over several cardiac cycles and derived cardiac function parameters

[2] = tested on: congestive heart failure following myocardial ischemia; assay: Acute myocardial ischemia induced HF, dose response / MED; format: in vivo, rat
Experimental: • Male Sprague Dawley rats • Ligation of left coronary artery for 30 minutes followed by reperfusion • Post-ligation recovery for 28 days • Cardiac function 28 days after ischemia-reperfusion using a Millar pressure-volume catheter inserted in the left ventricle via the carotid artery • Record pressure-volume loops over several cardiac cycles and derived cardiac function parameters Dose response with the compound of Formula I on cardiac function in congestive heart failure (CHF) was studied by inducing CHF following myocardial ischemia for the determination of Minimum Effective Dose (MED) 2 mg/kg, as shown in FIGS. 10A and 10B.

[3] = tested on: congestive heart failure subsequent to myocardial infarction; assay: Acute myocardial ischemia induced HF, duration of administration (regimens); format: in vivo, rat
[4] = tested on: diastolic dysfunction HF in obese ZSF1 rats; assay: ZSF1 model of heart failure with preserved ejection fraction (HFpEF), monotherapy; format: in vivo, rat
Description: This study determined the effects of the compound of Formula I on cardiac function after 16 weeks of treatment in male obese ZSF1 rats.
Lean ZSF1 rats were used as controls.
The obese ZSF1 rat was developed by crossing diabetic Zucker fatty rats with spontaneously hypertensive heart failure (SHHF) rats
• Hypertension • Impaired renal function • Obesity • Type 2 diabetes • Insulin resistance, hyperinsulinemia • Hypertriglyceridemia, • Hypercholesterolemia

global ischemia = assay: Acute cardioprotection: left ventricular function and coronary flow after global ischemia
[5] = tested on: coronary artery (isolated heart preparation); assay: Coronary artery vasodilation in an isolated heart preparation
PK profile in rats = format: in vivo, rat
PK profile in monkeys = format: in vivo, monkey; settings: for bioavailability: po
[6] = Tissue distribution in mice; format: in vivo, mouse; settings: for Compound of Formula 1 (μg/mL or μg/g): male Swiss Webster mice, single iv dose 60 mg/kg; for Kp at 4 h / Kp at 8 h: male, Swiss Webster, mouse, mice, single iv 60 mg/kg, read-out: Tissue/plasma ratio
Experimental: • N=3/time point, male Swiss Webster mice, single iv dose, 60 mg/kg Compound of Formula I

[7] = 2, 6 or 20 mg/kg oral daily day 2-26 post MI, 28 days post-MI
[8] = 2, 6 or 20 mg/kg oral daily day 2-26 post MI, 28 days post-MI, vs vehicle
[9] = 0.2, 0.6, 2 mg/kg daily, 4 weeks, effect at 2 mg/kg
[10] = 20 mg/kg daily for 7, 14 or 28 days
[11] = both sexes, monkey, in vivo, oral, monkeys, males and females
[12] = both sexes, monkey, in vivo, monkeys, males and females
[13] = in vivo, monkey, PK summary table

- Tmax (PK profile in rats; in vivo, oral, rat, PK summary table): 5 to 6 h
- Sex difference in PK (PK profile in rats; rat): No
- Accumulation (after multiple dosing) (PK profile in rats; rat, 4 wk GLP TK): Yes (4 wk
- Dose proportional (PK profile in rats; rat, 10-150 mg/kg): Yes
- clearance (PK profile in rats; rat, in vivo, PK summary table): 0.367 to 0.667 mL/min/kg
- half-life (PK profile in rats; rat, in vivo, PK summary table, mostly): 5 to 6 h
- half-life (PK profile in rats; rat, in vivo, PK summary table, some longer): 10 to 15 h
- bioavailability (PK profile in rats; rat, in vivo, po, rats, read-out: Oral bioavailability (Oral % F)): ~78%
- AUC(0-inf) (PK profile in rats; rat, in vivo, rats): 1080 ± 328 µg·h/mL
- AUC(0-t) (PK profile in rats; rat, in vivo, rats): 1010 ± 268 µg·h/mL
- Cmax (PK profile in rats; rat, in vivo, rats): 91 ± 12 µg/mL
- Tmax (PK profile in rats; rat, in vivo, rats): 6.7 ± 1.2 h
- clearance (PK profile in rats; rat, in vivo, rats): 0.367 mL/min/kg
- half-life (PK profile in rats; rat, in vivo, rats): 5 ± 1.3 h
- Vd (PK profile in rats; rat, in vivo, rats, read-out: Vss): 0.123 ± 0.056 L/kg
- Accumulation (after multiple dosing) (PK profile in rats; rat, once daily dosing 2 weeks): Unclear
- CL relative to hepatic blood flow rate (PK profile in rats; rats): lower than hepatic blow flow rate
- Vss relative to plasma volume (PK profile in rats; rats): higher than plasma volume
- Cmax (PK profile in monkeys; [11]): 10.9 ± 3.7 µg/mL
- Tmax (PK profile in monkeys; [11]): 2.6 ± 1.6 h
- AUC(0-inf) (PK profile in monkeys; [12]): 180 ± 68 µg·h/mL
- AUC(0-t) (PK profile in monkeys; [12]): 176 ± 67 µg·h/mL
- clearance (PK profile in monkeys; [12]): 0.433 mL/min/kg
- half-life (PK profile in monkeys; [12]): 34.6 ± 9.5 h
- Vd (PK profile in monkeys; both sexes, monkey, in vivo, monkeys, males and females, read-out: Vss): 0.184 ± 0.028 L/kg
- Tmax (PK profile in monkeys; in vivo, oral, monkey, PK summary table): ~1 h
- clearance (PK profile in monkeys; [13]): 0.517 to 0.667 mL/min/kg
- half-life (PK profile in monkeys; [13]): 22 to 36 h
- Systemic clearance compared with other species (PK profile in monkeys; monkey vs rats (slower than CL in dogs)): comparable to those in rats
- Dose proportional (PK profile in monkeys; monkey, 10-60 mg/kg): Yes
- Accumulation (after multiple dosing) (PK profile in monkeys; monkey, daily dosing, compared to Day 1 exposure): 2-3 fold higher
- bioavailability (PK profile in monkeys; monkey, in vivo, monkeys, read-out: Oral bioavailability (Oral % F)): 36 to 48%
- bioavailability (PK profile in monkeys; monkey, in vivo, monkeys, read-out: Oral bioavailability, group mean): 42 to 47%
- Dose proportional (PK profile in monkeys; monkey, up to 150 mg/kg): less than dose
- Dose proportionality of compound exposure (PK profile in monkeys; monkeys): increased dose proportionally
- Vss relative to plasma volume (PK profile in monkeys; monkeys): higher than plasma volume
- Sex difference in PK (PK profile in monkeys; monkeys, compound exposure or key PK parameters): no marked sex difference and No
- Compound of Formula 1 (μg/mL or μg/g) ([6]; Colon, 4 h post dose): 12.9 ± 2.7 μg/mL or μg/g
- Compound of Formula 1 (μg/mL or μg/g) ([6]; Colon, 8 h post dose): 16.1 ± 6.3 μg/mL or μg/g
- Compound of Formula 1 (μg/mL or μg/g) ([6]; Duodenum, 4 h post dose): 19.1 ± 5.6 μg/mL or μg/g
- Compound of Formula 1 (μg/mL or μg/g) ([6]; Duodenum, 8 h post dose): 21.8 ± 4.1 μg/mL or μg/g
- Compound of Formula 1 (μg/mL or μg/g) ([6]; Heart, 4 h post dose): 10.4 ± 4.6 μg/mL or μg/g
- Compound of Formula 1 (μg/mL or μg/g) ([6]; Heart, 8 h post dose): 7.4 ± 2.1 μg/mL or μg/g
- Compound of Formula 1 (μg/mL or μg/g) ([6]; Kidney, 4 h post dose): 9.2 ± 3.4 μg/mL or μg/g
- Compound of Formula 1 (μg/mL or μg/g) ([6]; Kidney, 8 h post dose): 7.2 ± 1.9 μg/mL or μg/g
- Compound of Formula 1 (μg/mL or μg/g) ([6]; Liver, 4 h post dose): 40.2 ± 7.2 μg/mL or μg/g
- Compound of Formula 1 (μg/mL or μg/g) ([6]; Liver, 8 h post dose): 38.4 ± 4.6 μg/mL or μg/g
- Compound of Formula 1 (μg/mL or μg/g) ([6]; Plasma, 4 h post dose): 56.6 ± 10.6 μg/mL or μg/g
- Compound of Formula 1 (μg/mL or μg/g) ([6]; Plasma, 8 h post dose): 43.3 ± 11.0 μg/mL or μg/g
- Kp at 4 h ([6]; Colon, 4 h post dose): 0.23
- Kp at 8 h ([6]; Colon, 8 h post dose): 0.37
- Kp at 4 h ([6]; Duodenum, 4 h post dose): 0.34
- Kp at 8 h ([6]; Duodenum, 8 h post dose): 0.5
- Kp at 4 h ([6]; Heart, 4 h post dose): 0.18
- Kp at 8 h ([6]; Heart, 8 h post dose): 0.17
- Kp at 4 h ([6]; Kidney, 4 h post dose): 0.16
- Kp at 8 h ([6]; Kidney, 8 h post dose): 0.17
- Kp at 4 h ([6]; Liver, 4 h post dose): 0.71
- Kp at 8 h ([6]; Liver, 8 h post dose): 0.89
- Kp at 4 h ([6]; Plasma, 4 h post dose): 1
- Kp at 8 h ([6]; Plasma, 8 h post dose): 1
SMILES: CC(C)(CC(=O)O)NC(=O)c1nc(C#N)c2cc(Oc3ccccc3)ccc2c1O [Formula I, 3-[(1-cyano-4-hydroxy-7-phenoxy-isoquinoline-3-carbonyl)-amino]-3-methyl-butyric acid]
- collagen deposition ([1]; 2, 6, 20 mg/kg daily, 4 weeks): Significant reduction in cardiac
- diastolic function ([1]; 2, 6, 20 mg/kg daily, 4 weeks): deposition, improvement in systolic
- systolic function ([1]; 2, 6, 20 mg/kg daily, 4 weeks): deposition, improvement in systolic
- circulating hemoglobin level [1, 7]: did not produce a concomitant significant increase; also recorded: without any concomitant rise
- other CBC parameters [1, 7]: did not produce a concomitant significant increase in circulating hemoglobin level or have a significant effect
- arterial elastance [1, 8]: significantly improved
- cardiac hypertrophy [1, 8]: significantly improved; also recorded: significant improvement; also recorded: Significant reduction in cardiac
- cardiac output [1, 8]: significantly improved; also recorded: significant improvement
- dPdtmax [1, 8]: significantly improved
- ejection fraction [1, 8]: significantly improved; also recorded: significant improvement; also recorded: fraction improved at all doses)
- end systolic volume [1, 8]: significantly improved; also recorded: significant improvement
- end-diastolic pressure [1, 8]: significantly improved
- relaxation time [1, 8]: significantly improved; also recorded: significant improvement
- stroke volume [1, 8]: significantly improved; also recorded: significant improvement
- stroke work [1, 8]: significantly improved; also recorded: significant improvement
- effectiveness of a lower dose at more frequent intervals vs a higher dose at less frequent intervals ([1]; daily 2, 6, 20 mg/kg vs every other day dosing): equally effective
- cardiac contractility ([1]; daily for 28 days): significant improvement
- cardiac hypertrophy [2, 9]: Significant reduction in cardiac
- diastolic function [2, 9]: hypertrophy and improved systolic
- systolic function [2, 9]: hypertrophy and improved systolic
- Minimum Effective Dose (MED) ([2]; cardiac function in CHF following myocardial ischemia): 2 mg/kg
- collagen deposition [3, 10]: All regimens reduced collagen
- diastolic function [3, 10]: 14 and 28 days regimens improved
- systolic function [3, 10]: 14 and 28 days regimens improved
- cardiac hypertrophy ([3]; 20 mg/kg daily, 14 and 28 days regimens): reduced cardiac hypertrophy
- hypertension ([4]; 20 mg/kg QOD, 16 weeks): Significant stabilization of
- diastolic function ([4]; 20 mg/kg QOD, 16 weeks, end-diastolic pressure, left atrium weight, relaxation time, dp/dt minimum): improved; also recorded: Significant improvement in
- blood pressure (mean, diastolic, systolic) ([4]; monotherapy): normalized
- coronary flow (global ischemia): improved
- left ventricular function (global ischemia): improved
- left ventricular function (LVDP) (global ischemia): improved
- left ventricular function (LVEP) (global ischemia): improved
- coronary artery vasodilation (coronary perfusion pressure, coronary resistance) [5]: induced
